# From patent US20260184707A1, “PHARMACEUTICAL COMPOUNDS FOR THE TREATMENT OF COMPLEMENT MEDIATED DISORDERS” (ALEXION PHARMACEUTICALS, INC., priority 2022, published 2026)
# Biological target: T1, Human complement C1s enzyme (Homo sapiens, UniProt P09871)
# T1 construct: purified from human serum, Complement Technology, Inc; purchased Complement Technology, Inc; host or cells: human serum (plasma-derived native protein)
# T1 sequence (P09871 438-688 limits assumed): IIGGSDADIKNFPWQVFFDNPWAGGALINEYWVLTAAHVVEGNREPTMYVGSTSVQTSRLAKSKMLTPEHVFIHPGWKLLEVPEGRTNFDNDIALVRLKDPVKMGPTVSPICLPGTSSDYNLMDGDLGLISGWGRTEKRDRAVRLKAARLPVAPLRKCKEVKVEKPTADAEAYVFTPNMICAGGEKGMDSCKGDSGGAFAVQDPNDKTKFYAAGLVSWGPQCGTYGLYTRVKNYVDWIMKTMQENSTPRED
# T1 sequence (P09871 16-437 partner limits assumed): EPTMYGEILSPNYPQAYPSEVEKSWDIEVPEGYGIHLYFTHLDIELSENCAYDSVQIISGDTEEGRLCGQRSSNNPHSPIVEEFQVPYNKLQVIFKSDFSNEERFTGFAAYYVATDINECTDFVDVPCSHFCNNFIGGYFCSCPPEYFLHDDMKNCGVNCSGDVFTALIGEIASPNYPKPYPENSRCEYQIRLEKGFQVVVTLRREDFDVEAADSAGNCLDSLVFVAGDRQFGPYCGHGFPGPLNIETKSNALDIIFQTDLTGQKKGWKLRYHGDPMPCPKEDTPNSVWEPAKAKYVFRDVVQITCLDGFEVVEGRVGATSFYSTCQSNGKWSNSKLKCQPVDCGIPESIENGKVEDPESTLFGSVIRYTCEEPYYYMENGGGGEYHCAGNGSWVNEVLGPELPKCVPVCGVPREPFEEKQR
# Experiment: Human C1s enzyme assay
# Type: biochemical
# Conditions: human complement C1s enzyme 1.16 nM, substrate Z-L-Lys-SBzl, A405; read-out: IC50 (Stars)
# In short: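 Thioesterase activity followed colorimetrically (DTNB, A405, 30-s reads) using 100 μM Z-L-Lys-SBzl substrate. Enzyme, human serum-derived C1s at 1.16 nM final, was incubated with test compound for 5 min, room temperature, pH 7.5 Tris buffer with 1 M NaCl. Rate-versus-concentration data fitted by nonlinear regression for IC50.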
row,Compound,IC50
1,"O=C(Cn1c(-c2ccc(S(F)(F)(F)(F)F)cc2)ncc(NCc2ccc3c(c2)-c2ccccc2C3(F)F)c1=O)NCc1cc2cnccc2[nH]1 [Compound 255, N-((1H-pyrrolo[3,2-c]pyridine-2-yl)methyl)-2-(5-(((9,9-difluoro-9H-fluoren-3-yl)methyl)amino)-6-oxo-2-(4-(pentafluoro-λ^6-sulfaneyl)phenyl)pyrimidin-1(6H)-yl)acetamide]",< 100 nM
2,"O=C(Cn1c(-c2ccccc2)ncc(NC(=O)c2ccc(-c3ccccc3)s2)c1=O)NCc1ccc(Cl)cc1 [Compound 256, N-(1-(2-((4-chlorobenzyl)-amino)-2-oxoethyl)-6-oxo-2-phenyl-1,6-dihydropyrimidin-5-yl)-5-phenylthiophene-2-carboxamide]",> 1000 nM
3,"COc1ccccc1-c1ccc(CNc2cnc(-c3ccccc3)n(CC(=O)NCc3cc4cnccc4[nH]3)c2=O)cc1 [Compound 257, N-((1H-pyrrolo[3,2-c]pyridin-2-yl)methyl)-2-(5-(((2′-meth-oxy-[1,1′-biphenyl]-4-yl)meth-yl)amino)-6-oxo-2-phenylpyr-imidin-1(6H)-yl)acetamide]",< 100 nM
4,"O=C(Cn1c(-c2ccccc2)ncc(NCc2ccc(-c3ccccc3)s2)c1=O)NCc1cc2cnccc2[nH]1 [Compound 258, N-((1H-pyrrolo[3,2-c]pyridine-2-yl)methyl)-2-(6-oxo-2-phenyl-5-(((5-phenylthiophen-2-yl)methyl)amino)pyrimidin-1(6H)-yl)acetamide]",< 100 nM
5,"O=C(Cn1c(-c2ccccc2)ncc(NCc2ccc3sc4ccccc4c3c2)c1=O)NCc1cc2cnccc2[nH]1 [Compound 259, N-((1H-pyrrolo[3,2-c]pyridin-2-yl)methyl)-2-(5-((dibenzo [b,d]thiophen-2-ylmethyl)-amino)-6-oxo-2-phenylpyrimi-din-1(6H)-yl)acetamide]",< 100 nM
6,"O=C(Cn1c(N2CCOCC2)ncc(NCc2ccc3oc4ccccc4c3c2)c1=O)NCc1cc2cnccc2[nH]1 [Compound 260, N-((1H-pyrrolo[3,2-c]pyridin-2-yl)methyl)-2-(5-((dibenzo [b,d]furan-2-ylmethyl)amino)-2-morpholino-6-oxopyrimidin-1(6H)-yl)acetamide]",< 100 nM
7,"O=C(Cn1c(N2CCCCC2)ncc(NCc2ccc3oc4ccccc4c3c2)c1=O)NCc1cc2cnccc2[nH]1 [Compound 261, N-((1H-pyrrolo[3,2-c]pyridin-2-yl)methyl)-2-(5-((dibenzo [b,d]furan-2-ylmethyl)amino)-6-oxo-2-(piperidin-1-yl)pyrimi-din-1(6H)-yl)acetamide]",< 100 nM
8,"CO[C@@H]1CO[C@H]2[C@@H]1OC[C@H]2Oc1ccc(-c2ncc(NC(=O)c3cnc(-c4ccccc4)s3)c(=O)n2CC(=O)NCc2cc3cnccc3[nH]2)cc1 [Compound 262, N-(1-(2-(((1H-pyrrolo[3,2-c]pyridine-2-yl)methyl)amino)-2-oxoethyl)-2-(4-(((3R,3aR,6R,6aR)-6-methoxyhexahydrofuro[3,2-b]furan-3-yl)oxy)phenyl)-6-oxo-1,6-dihydropyrimidin-5-yl)-2-phenylthiazole-5-carboxamide]",< 100 nM
9,"O=C(Cn1c(-c2ccc(O[C@@H]3CO[C@H]4[C@@H]3OC[C@H]4O)cc2)ncc(NC(=O)c2cnc(-c3ccccc3)s2)c1=O)NCc1cc2cnccc2[nH]1 [Compound 263, N-(1-(2-(((1H-pyrrolo[3,2-c]pyridine-2-yl)methyl)amino)-2-oxoethyl)-2-(4-(((3R,3aR,6R,6aR)-6-hydroxyhexahydrofuro[3,2-b]furan-3-yl)oxy)phenyl)-6-oxo-1,6-dihydropyrimidin-5-yl)-2-phenylthiazole-5-carboxamide]",< 100 nM
10,"O=C(Cn1c(-c2ccc(O[C@@H]3CO[C@H]4[C@@H]3OC[C@H]4O)cc2)ncc(NC(=O)c2ccc(-c3ccccc3)s2)c1=O)NCc1cc2cnccc2[nH]1 [Compound 264, N-(1-(2-(((1H-pyrrolo[3,2-c]pyridin-2-yl)methyl)amino)-2-oxoethyl)-2-(4-(((3R,3aR,6R, 6aR)-6-hydroxyhexahydrofuro [3,2-b]furan-3-yl)oxy)phenyl)-6-oxo-1,6-dihydropyrimidin-5-yl)-5-phenylthiophene-2-carboxamide]",< 100 nM

# Further lines, results first:
row,IC50,Compound
1,< 100 nM,"C[C@H](Nc1cncn(CC(=O)NCc2cc3cnccc3[nH]2)c1=O)c1ccc2oc3ccccc3c2c1 [Compound 265, (S)—N-((1H-pyrrolo[3,2-c]pyridine-2-yl)methyl)-2-(5-((1-(dibenzo[b,d]furan-2-yl)ethyl)amino)-6-oxopyrimidin-1(6H)-yl)acetamide]"
2,> 1000 nM,"O=C(NCCOc1nc(-c2ccccc2)ncc1NCc1ccc2oc3ccccc3c2c1)c1cc2cnccc2[nH]1 [Compound 266, N-(2-((5-((dibenzo[b,d]furan-2-ylmethyl)amino)-2-phenyl-pyrimidin-4-yl)oxy)ethyl)-1H-pyrrolo[3,2-c]pyridine-2-carboxamide]"
3,> 1000 nM,"O=C(NCCn1c(-c2ccccc2)ncc(NCc2ccc3oc4ccccc4c3c2)c1=O)c1cc2cnccc2[nH]1 [Compound 267, N-(2-(5-((dibenzo[b,d]furan-2-ylmethyl)amino)-6-oxo-2-phenylpyrimidin-1(6H)-yl)-ethyl)-1H-pyrrolo[3,2-c]pyr-idine-2-carboxamide]"
4,> 1000 nM,"O=C(COc1cc(C(=O)NCc2ccc3oc4ccccc4c3c2)nc(-c2ccccc2)n1)NCc1cc2cnccc2[nH]1 [Compound 268, 6-(2-(((1H-pyrrolo[3,2-c]pyridine-2-yl)methyl)amino)-2-oxoethoxy)-N-(dibenzo[b,d]furan-2-ylmethyl)-2-phenylpyrimidine-4-carboxamide]"
5,> 1000 nM,"Cc1nc(-c2ccccc2)nc(OCC(=O)NCc2cc3cnccc3[nH]2)c1NCc1ccc2oc3ccccc3c2c1 [Compound 269, N-((1H-pyrrolo[3,2-c]pyridine-2-yl)methyl)-2-((5-((dibenzo[b,d]furan-2-ylmethyl)amino)-6-methyl-2-phenylpyrimidin-4-yl)oxy)acetamide]"
6,< 100 nM,"O=C(Cn1c(N2CC(F)C2)ncc(NCc2ccc3oc4ccccc4c3c2)c1=O)NCc1cc2cnccc2[nH]1 [Compound 270, 2-[5-(dibenzofuran-2-ylmethylamino)-2-(3-fluoroazetidin-1-yl)-6-oxo-pyrimidin-1-yl]-N-(1H-pyrrolo[3,2-c]pyridine-2-ylmethyl)acetamide]"
7,< 100 nM,"O=C(Cn1c(N2CCC(F)(F)C2)ncc(NCc2ccc3oc4ccccc4c3c2)c1=O)NCc1c[nH]c2ccncc12 [Compound 271, N-((1H-pyrrolo[3,2-c]pyridin-3-yl)methyl)-2-(5-((dibenzo [b,d]furan-2-ylmethyl)amino)-2-(3,3-difluoropyrrolidin-1-yl)-6-oxopyrimidin-1(6H)-yl)acet-amide]"
8,< 100 nM,"C[C@H](Nc1cnc(C2=CCCCC2)n(CC(=O)NCc2cc3cnccc3[nH]2)c1=O)c1ccc2oc3ccccc3c2c1 [Compound 272, (S)-N-((1H-pyrrolo[3,2-c]pyr-idin-2-yl)methyl)-2-(2-(cyclo-hex-1-en-1-yl)-5-((1-(dibenzo [b,d]furan-2-yl)ethyl)amino)-6-oxopyrimidin-1(6H)-yl)acet-amide]"
9,< 100 nM,"C[C@H](Nc1cnc(-c2ccco2)n(CC(=O)NCc2cc3cnccc3[nH]2)c1=O)c1ccc2oc3ccccc3c2c1 [Compound 273, (S)-N-((1H-pyrrolo[3,2-c]pyr-idin-2-yl)methyl)-2-(5-((1-(dibenzo[b,d]furan-2-yl)ethyl)-amino)-2-(furan-2-yl)-6-oxo-pyrimidin-1(6H)-yl)acetamide]"
10,< 100 nM,"C[C@H](Nc1cnc(-c2cccnc2)n(CC(=O)NCc2cc3cnccc3[nH]2)c1=O)c1ccc2oc3ccccc3c2c1 [Compound 274, (S)-N-((1H-pyrrolo[3,2-c]pyr-idin-2-yl)methyl)-2-(5-((1-(dibenzo[b,d]furan-2-yl)ethyl)-amino)-6-oxo-2-(pyridin-3-yl)-pyrimidin-1(6H)-yl)acetamide]"
11,< 100 nM,"C[C@@H](Nc1cnc(-c2ccccc2)n(CC(=O)NCc2cc3cnccc3[nH]2)c1=O)c1ccc(-c2ccccc2)cc1 [Compound 275, (R)-N-((1H-pyrrolo[3,2-c]pyr-idin-2-yl)methyl)-2-(5-((1-([1,1′-biphenyl]-4-yl)ethyl)-amino)-6-oxo-2-phenylpyrimi-din-1(6H)-yl)acetamide]"
12,< 100 nM,"C[C@H](Nc1cnc(-c2ccccc2)n(CC(=O)NCc2cc3cnccc3[nH]2)c1=O)c1ccc(-c2ccccc2)cc1 [Compound 276, (S)-N-((1H-pyrrolo[3,2-c]pyr-idin-2-yl)methyl)-2-(5-((1-([1,1′-biphenyl]-4-yl)ethyl)-amino)-6-oxo-2-phenylpyrimi-din-1(6H)-yl)acetamide]"
13,< 100 nM,"C[C@H](Nc1cnc(C2CCCC2)n(CC(=O)NCc2cc3cnccc3[nH]2)c1=O)c1ccc2oc3ccccc3c2c1 [Compound 277, (S)-N-((1H-pyrrolo[3,2-c]pyr-idin-2-yl)methyl)-2-(2-cyclo-pentyl-5-((1-(dibenzo[b,d]furan-2-yl)ethyl)amino)-6-oxo-pyrimidin-1(6H)-yl)acetamide]"
